In assay [1] the target is T1, Corticotropin-releasing factor receptor 2/Corticotropin-releasing factor-binding protein (Homo sapiens, UniProt P24387+Q13324).
T1 sequence (Q13324 whole entry): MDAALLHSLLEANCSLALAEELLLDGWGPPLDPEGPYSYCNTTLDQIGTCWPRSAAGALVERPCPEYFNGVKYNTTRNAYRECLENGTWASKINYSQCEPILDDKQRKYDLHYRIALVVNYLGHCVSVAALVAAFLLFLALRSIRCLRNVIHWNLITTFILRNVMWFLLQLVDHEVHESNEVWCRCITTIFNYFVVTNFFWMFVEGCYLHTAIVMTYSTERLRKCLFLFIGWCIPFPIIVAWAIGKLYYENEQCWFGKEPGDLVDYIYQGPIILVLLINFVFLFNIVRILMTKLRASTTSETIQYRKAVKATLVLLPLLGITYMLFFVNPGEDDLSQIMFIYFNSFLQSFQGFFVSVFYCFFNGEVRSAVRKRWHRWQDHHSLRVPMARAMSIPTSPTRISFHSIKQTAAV
T1 sequence (P24387 whole entry): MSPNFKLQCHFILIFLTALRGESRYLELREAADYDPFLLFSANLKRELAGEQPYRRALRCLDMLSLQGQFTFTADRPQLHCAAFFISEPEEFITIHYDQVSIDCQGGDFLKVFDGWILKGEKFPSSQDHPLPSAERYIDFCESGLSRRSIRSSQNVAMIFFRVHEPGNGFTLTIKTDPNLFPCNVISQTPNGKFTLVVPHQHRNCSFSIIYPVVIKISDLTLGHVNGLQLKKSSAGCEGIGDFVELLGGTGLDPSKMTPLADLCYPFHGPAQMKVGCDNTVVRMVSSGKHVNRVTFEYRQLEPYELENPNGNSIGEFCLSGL
Put plainly: activators of CRF receptor 2 with binding protein – uHTS hits, confirmation (AID 602473). Type of assay: functional. The following applies: read-out: EC50_Mean.

Assay [2] has as its system INS1. In words: beta cell apoptosis inhibitors, cytokine rescue, dose response, luminescence, retest (AID 449756).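 Also: cell death triggered by IL-1 beta plus TNF-alpha plus IFN-gamma mixture; protective hits raise ATP signal compared with cytokine alone wells.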 The following applies: Rattus norvegicus, INS1. Type of assay: functional, cell-based.
A short description of assay [3]: cytotoxicity toward NIH3T3 fibroblasts, dose response, counter-screen, cell-based, ATP luminescence, mouse fibroblasts (AID 2010).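 Also: cells exposed to compound for about 90 hours before reading.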 Type of assay: functional.
Assay [4] is described as follows: inhibitors of intracellular T. cruzi replication, confirmation, NIH3T3 host cells, beta-gal luminescence (AID 2044).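 Also: intracellular parasites grown in NIH/3T3 mouse fibroblasts as host cells; luminescent beta-galactosidase reporter signal from transgenic T. cruzi replicating inside host cells; inhibitors lower the luminescence signal.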 It counts as functional, cell-based.
Assay [5] addresses T2, RNA-binding protein pos-1 (Caenorhabditis elegans, UniProt G5EF15).
T2 sequence (G5EF15 whole entry): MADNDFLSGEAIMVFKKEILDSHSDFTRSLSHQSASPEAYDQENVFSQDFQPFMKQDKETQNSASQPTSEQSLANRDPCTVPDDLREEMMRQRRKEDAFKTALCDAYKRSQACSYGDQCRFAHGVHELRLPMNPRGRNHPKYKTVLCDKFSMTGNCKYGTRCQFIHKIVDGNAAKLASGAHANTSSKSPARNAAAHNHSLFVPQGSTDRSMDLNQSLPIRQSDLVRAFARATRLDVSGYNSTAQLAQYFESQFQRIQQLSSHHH
Put plainly: inhibitors of POS-1/mex-3 RNA binding, dose response, biochemical, fluorescence polarization (AID 1964).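 Also: purified POS-1 fused to maltose binding protein made in E. coli; potency of compounds blocking POS-1 binding to fluorescent RNA.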 A general note: Polarisation of emitted light reports the rotation of a fluorescent probe.

The target of assay [6] is T3, Zinc finger protein mex-5 (Caenorhabditis elegans, UniProt Q9XUB2).
T3 sequence (Q9XUB2 whole entry): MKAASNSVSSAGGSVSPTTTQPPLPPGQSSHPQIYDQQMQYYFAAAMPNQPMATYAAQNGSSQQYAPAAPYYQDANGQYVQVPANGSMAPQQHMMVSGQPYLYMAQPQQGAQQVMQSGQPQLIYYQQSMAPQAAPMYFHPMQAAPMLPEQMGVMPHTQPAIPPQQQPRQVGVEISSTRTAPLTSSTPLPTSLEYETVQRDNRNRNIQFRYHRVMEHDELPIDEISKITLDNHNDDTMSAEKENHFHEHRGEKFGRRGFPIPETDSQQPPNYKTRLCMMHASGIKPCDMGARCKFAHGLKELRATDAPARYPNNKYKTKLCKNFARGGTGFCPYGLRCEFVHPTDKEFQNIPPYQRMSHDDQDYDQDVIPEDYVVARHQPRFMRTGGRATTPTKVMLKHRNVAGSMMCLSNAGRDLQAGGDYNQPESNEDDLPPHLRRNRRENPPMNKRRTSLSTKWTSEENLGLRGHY
Put plainly: MEX-5/TCR-2 RNA interaction inhibitors, dose response, biochemical, C. elegans, fluorescence polarization (AID 1960).

The target of assay [7] is T4, Cytochrome P450 1A2 (Homo sapiens, UniProt P05177).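 Also: PubChem cytochrome P450 panel assay, CYP1A2 panel member.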
T4 sequence (P05177 whole entry): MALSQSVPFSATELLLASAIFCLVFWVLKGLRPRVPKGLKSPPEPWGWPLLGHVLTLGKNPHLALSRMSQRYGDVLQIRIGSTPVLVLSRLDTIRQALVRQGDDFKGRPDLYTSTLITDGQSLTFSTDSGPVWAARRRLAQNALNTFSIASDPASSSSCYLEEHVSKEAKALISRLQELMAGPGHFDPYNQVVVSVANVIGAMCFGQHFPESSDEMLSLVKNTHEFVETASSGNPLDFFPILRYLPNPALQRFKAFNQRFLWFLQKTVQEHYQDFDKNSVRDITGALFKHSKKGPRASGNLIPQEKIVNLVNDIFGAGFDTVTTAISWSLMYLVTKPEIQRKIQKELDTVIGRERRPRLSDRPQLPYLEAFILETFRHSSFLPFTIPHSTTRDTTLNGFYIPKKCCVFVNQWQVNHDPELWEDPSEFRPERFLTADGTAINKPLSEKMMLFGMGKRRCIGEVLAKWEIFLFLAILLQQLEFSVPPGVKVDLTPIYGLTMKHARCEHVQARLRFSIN

The target in assay [8] is Cytochrome P450 3A4 (Homo sapiens, UniProt P08684).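 Also: CYP3A4 tested as one member of a cytochrome P450 panel screen.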
Cytochrome P450 3A4, sequence (P08684 whole entry): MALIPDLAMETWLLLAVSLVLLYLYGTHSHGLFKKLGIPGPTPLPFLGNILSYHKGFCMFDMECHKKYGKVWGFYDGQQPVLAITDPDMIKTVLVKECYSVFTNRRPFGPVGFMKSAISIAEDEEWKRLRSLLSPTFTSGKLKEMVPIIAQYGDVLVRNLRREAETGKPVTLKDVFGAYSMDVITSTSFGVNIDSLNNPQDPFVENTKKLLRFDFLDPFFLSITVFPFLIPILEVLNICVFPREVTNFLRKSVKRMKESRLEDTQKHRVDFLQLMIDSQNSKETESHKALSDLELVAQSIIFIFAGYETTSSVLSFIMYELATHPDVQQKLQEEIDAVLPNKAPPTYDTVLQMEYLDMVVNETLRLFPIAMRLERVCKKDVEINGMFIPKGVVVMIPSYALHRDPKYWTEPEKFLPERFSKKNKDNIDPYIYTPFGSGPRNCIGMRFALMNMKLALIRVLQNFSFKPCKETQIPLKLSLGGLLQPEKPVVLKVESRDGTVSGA
Assay [9] is described as follows: Luminescence Cell-Based Dose Response HTS to Identify Activators of Luciferase Translation or Activity in H4 […] Cells. [Related pubchem assays: 1829 (Project Summary), 1814 (Primary HTS)]. Type of assay: functional.
Assay [10] relates to Streptococcus sp. 'group A'. In words: growth inhibition of control SK(-) GAS strain, dose response, counter-screen for streptokinase expression inhibitor project, luminescence, kanamycin, BacTiterGlo, confirmation (AID 1900). Type of assay: functional, organism-based. A general note: A counterscreen serves to expose hits that act by an unwanted route or on another target.
In assay [11] the test system is Streptococcus. In words: Group A Streptococcus viability loss, dose response, counter-screen for streptokinase expression inhibitor project, luminescence, BacTiterGlo (AID 1915).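 Also: potency for reduction of bacterial viability or growth.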 Type of assay: functional, organism-based.

Active and inactive are the calls of the source. Rule as the data show it, for most assays here: actives have a measured EC50 and inactives only a lower limit.

As for `O=C(CCn1c2c(c3ccccc31)CCCC2)NNC(=O)c1ccccc1C(=O)O`, in [1], the EC50 was 7.66 µM (active).

For orientation: AC50 means the concentration at which the activity in the assay is half-maximal. `O=C(CN1CCOCC1)N/N=C/c1c(O)ccc2ccccc12`: in assay [2], the AC50 was 4.87 µM (active).

`CC(C)Cc1ccc(CN2CCC(n3nccc3NC(=O)C3CCCC3)CC2)cc1`: the EC50 in assay [3] is > 60 µM (not active); in assay [4] it was 0.313 µM (active).

As to `Cc1ccc(NC(=O)CCS(=O)(=O)c2cc3c(cc2Cl)NC(=O)CO3)cc1`, the EC50 in assay [5] and in [6] was > 300 µM (not active) in each case.

With `O=C(CN1CCC(C(O)(c2ccccc2)c2ccccc2)CC1)Nc1cc(Cl)ccc1Cl`, the EC50 in [3] is 9.41 µM (active); in assay [4] it was 1.38 µM (active).

`O=C(O)c1ccccc1C(=O)Nc1cc2c(cc1Br)-c1ccccc1C2=O`: the AC50 in [7] was 0.631 µM (inconclusive).

With `COc1ccc(N(C)S(=O)(=O)c2ccc3c(c2)CCC(=O)N3)cc1`, the AC50 in assay [8] was 3.55 µM (inconclusive); in assay [7] it was 0.01 µM (inconclusive).

On to `O=C(Nc1cccc(-c2cn3cccnc3n2)c1)c1ccco1`, for which, in [8], the AC50 is 25.1 µM (inconclusive). For the same compound, the EC50 in assay [3] is > 30 µM (not active); in [4], 0.941 µM (active).

As to `COc1ccc(Nc2ncnc3c2oc2ccccc23)cc1`, in [9], the EC50 was 7.34 µM (active).

Regarding `CCOc1cc(/C=N/NC(=O)c2cc(-c3cccc(OC)c3)nc3ccccc23)ccc1O`, the AC50 in assay [2] is 8.15 µM (active).

`CC(C)OCCCn1/c(=N/C(=O)c2cccs2)c(C#N)cc2c(=O)n3ccccc3nc21`: the EC50 in assay [5] and in assay [6] was > 300 µM (not active) throughout.

As to `CCN1C(=O)[C@H]2[C@@H](c3ccc(-c4cccc(Cl)c4)cc3)N[C@@](Cc3ccccc3)(C(=O)OC)[C@H]2C1=O`, the EC50 was 14.6 µM (active) in assay [3] and 2.06 µM (active) in assay [4].

Take `COc1ccc(C2=NOC(CN=C(N)S)C2)cc1` (centres undefined): the EC50 is 3.77 µM (active) in [10] and 10.9 µM (active) in assay [11].

As for `CCN(CC(=O)Nc1ccc(NC(C)=O)cc1)C(=O)CCCOc1ccc(C(C)(C)C)cc1`, in [2], the AC50 was 23.7 µM (active).

Take `O=C(NCc1cccnc1)c1sc2cc(Cl)ccc2c1Cl`: the AC50 in assay [8] is 0.891 µM (inconclusive).

`COCCn1c(SCC(=O)NC(=O)NCc2ccccc2)nc2ccccc21`: the figures for the EC50 in assay [3] and in [4] were > 60 µM (not active) and 1.14 µM (active), respectively.

On to `COc1ccc(-c2nc3cnc(N4CCN(C)CC4)nc3n(C)c2=O)cc1`, for which the AC50 in [7] is 25.1 µM (inconclusive).

Consider `COc1cc(OC)cc(C(=O)Nn2cc(C(=O)N3CCN(C)CC3)c3ccccc3c2=O)c1`, for which the AC50 in assay [8] is 28.2 µM (inconclusive); in assay [7] it was 10 µM (inconclusive).

For `Cc1ccc(S(=O)(=O)c2ccccc2)cc1S`, the results for the EC50 in assay [3] and in assay [4] were > 30 µM (not active) and 0.983 µM (active), respectively.

Turning to `O=C(CCN1CCN(Cc2ccccc2)CC1)Nc1cccc(Cl)c1`, the EC50 is > 60 µM (not active) in assay [3] and 0.965 µM (active) in assay [4].

Regarding `COc1ccc(Cl)c(Cn2c(NCc3ccco3)nc3c2c(=O)n(C)c(=O)n3C)c1`, the AC50 in assay [2] is 3.27 µM (active).

For `CCC(CO)Oc1cc(NCc2ccc(C(C)(C)C)cc2)c2ncn(C(C)C)c2c1` (centres undefined), the AC50 in assay [2] was 3.07 µM (active).

In the case of `N#Cc1ccc(CN2CC[C@@]3(CCCNC3)C2)cc1`, the AC50 in [8] is 31.6 µM (inconclusive); in [7] it was 25.1 µM (inconclusive).

Consider `CC(C)[C@H](Sc1nc(N)nc2[nH]cnc12)C(=O)O`, for which the AC50 in assay [7] was 0.316 µM (inconclusive).

Turning to `CC(CN1CCN(C)CC1)OC(=O)c1ccc(Cl)cc1` (centres undefined), the EC50 in assay [3] is > 60 µM (not active); in assay [4] it was 0.606 µM (active).

As to `O=C(Nc1ccc(F)cc1F)N1CCCCC1c1cccnc1` (centres undefined), the EC50 was > 60 µM (not active) in assay [3] and 0.654 µM (active) in assay [4].

As to `COc1ccccc1CN1C[C@@H]2C[C@@H](c3ccc(C)c(C)c3)N3CCC[C@@]23C1=O`, the results for the EC50 in assay [3] and in assay [4] were > 30 µM (not active) and 2.26 µM (active), respectively.

Consider `COc1cccc2c(=O)n(CC(=O)N3CCc4ccccc43)ccc12`, for which, in assay [1], the EC50 was > 53 µM (inactive).

In the case of `COCCNC(=O)CSc1nc2ccc(N3CCOCC3)cc2c(=O)n1Cc1ccc(OC)cc1`, the half-maximal activity concentration (AC50) in assay [7] was 15.8 µM (inconclusive).

In the case of `COc1ccc(CCNC[C@H](O)c2ccc(O)cc2)cc1OC` [DENOPAMINE], the concentration at half-maximal activity (AC50) in [8] was 25.1 µM (inconclusive).

As to `O=C(C1CCCN(Cc2cccc(Cl)c2)C1)N1CCCCC1` (centres undefined), the results for the EC50 in [3] and in assay [4] were > 30 µM (not active) and 0.167 µM (active), respectively.

Consider `CCOC(=O)Cc1ccc(NCc2ccc(Cl)cc2)cc1`, for which the results for the EC50 in [3] and in assay [4] were > 30 µM (not active) and 1.47 µM (active), respectively.

For `CC(=O)N1CCN(C(=O)CC2OC(=O)c3ccccc32)CC1` (centres undefined), the AC50 in [7] was 22.4 µM (inconclusive).

With `Cc1ccc(OC[C@H](O)[C@H](C)NC(C)C)c2c1CCC2`, the AC50 in assay [8] was 31.6 µM (inconclusive).

In the case of `Cc1ccc(-c2cnc(NC(=O)CCC(=O)N(C)Cc3ccccc3)n2C)cc1`, the AC50 in [2] is 21.3 µM (active).

As for `CC(C)(C)C(=O)Nc1ccnc(-c2cccnc2)n1`, the AC50 in assay [8] was 2.51 µM (inconclusive).

On to `CN1CCCC2(CCN(C(=O)c3cnccn3)CC2)C1`, for which, in assay [8], the AC50 is 25.1 µM (inconclusive).

Turning to `COc1ccc(-c2c[n+](-c3ccc(Cl)cc3)c3n2CCCCC3)cc1`, in assay [2], the concentration at half-maximal activity (AC50) was 2.16 µM (active). Moreover, the EC50 in [3] is > 60 µM (not active); in assay [4] it was 0.781 µM (active).

With `C=C(C)CSc1nc2sc3c(c2c(=O)n1-c1ccccc1)CCN(C)C3`, the EC50 in assay [3] is > 30 µM (not active); in [4], 0.197 µM (active).

For `CCN(CC)CCN1c2ccccc2Sc2ccc3ccccc3c21`, in assay [2], the AC50 was 14 µM (active).

On to `CCc1noc(C)c1C(=O)N1CCCC(C(=O)c2cc(F)ccc2OC)C1` (centres undefined), for which the EC50 is > 60 µM (not active) in assay [3] and 9.23 µM (active) in [4].

(Values after ChEMBL document CHEMBL1201862, “PubChem BioAssay data set” (2004).)
